± gives the uncertainty stated by the source.
Assay: xn = mol fraction of the nth substance listed

COCCOCCOCCOCCOC + COC(C)=O
viscosity [mPa·s], 101 kPa
Conditions	298.15 K	308.15 K	318.15 K
x1 = 0.0089	0.382 ± 0.01	0.344 ± 0.0093	0.325 ± 0.0088
x1 = 0.0206	0.404 ± 0.011	0.364 ± 0.0098	0.339 ± 0.0091
x1 = 0.0384	0.439 ± 0.012	0.392 ± 0.01	0.365 ± 0.0098
x1 = 0.0758	0.519 ± 0.014	0.459 ± 0.012	0.42 ± 0.011
x1 = 0.1174	0.61 ± 0.016	0.539 ± 0.014	0.484 ± 0.013
x1 = 0.1646	0.729 ± 0.019	0.63 ± 0.017	0.56 ± 0.015
x1 = 0.231	–	0.773 ± 0.021	0.677 ± 0.018
x1 = 0.2993	1.096 ± 0.029	0.924 ± 0.025	0.749 ± 0.02
x1 = 0.3846	1.349 ± 0.036	1.11 ± 0.029	0.947 ± 0.025
x1 = 0.453	1.581 ± 0.042	1.294 ± 0.034	1.09 ± 0.029
x1 = 0.5398	1.854 ± 0.049	1.503 ± 0.04	1.254 ± 0.033
x1 = 0.6662	2.272 ± 0.06	1.832 ± 0.048	1.504 ± 0.04
x1 = 0.719	2.475 ± 0.065	1.961 ± 0.052	1.624 ± 0.043
x1 = 0.7865	2.669 ± 0.07	2.143 ± 0.057	1.751 ± 0.046
x1 = 0.8413	2.902 ± 0.076	2.278 ± 0.06	1.858 ± 0.049
x1 = 0.8673	2.957 ± 0.078	2.358 ± 0.062	1.919 ± 0.051
x1 = 0.8983	3.08 ± 0.081	2.43 ± 0.064	1.956 ± 0.052
x1 = 0.9205	3.127 ± 0.082	2.478 ± 0.066	1.991 ± 0.053
x1 = 0.9565	3.266 ± 0.086	2.547 ± 0.067	2.058 ± 0.055

Clc1ccccc1 + Cc1ccccc1C
101 kPa
Conditions	viscosity [mPa·s]
293.15 K, x1 = 0.1217	0.755 ± 0.013
293.15 K, x1 = 0.2237	0.76 ± 0.013
293.15 K, x1 = 0.4305	0.759 ± 0.013
293.15 K, x1 = 0.5325	0.753 ± 0.013
293.15 K, x1 = 0.6305	0.76 ± 0.013
293.15 K, x1 = 0.7288	0.755 ± 0.013
293.15 K, x1 = 0.8295	0.756 ± 0.013
293.15 K, x1 = 0.9051	0.75 ± 0.013
298.15 K, x1 = 0.1005	0.712 ± 0.013
298.15 K, x1 = 0.2307	0.708 ± 0.013
298.15 K, x1 = 0.3108	0.704 ± 0.013
298.15 K, x1 = 0.4337	0.706 ± 0.013
298.15 K, x1 = 0.5454	0.705 ± 0.013
298.15 K, x1 = 0.6079	0.705 ± 0.013
298.15 K, x1 = 0.7762	0.706 ± 0.013
298.15 K, x1 = 0.8807	0.705 ± 0.012
303.15 K, x1 = 0.1214	0.66 ± 0.012
303.15 K, x1 = 0.2389	0.666 ± 0.012
303.15 K, x1 = 0.3117	0.653 ± 0.012
303.15 K, x1 = 0.4128	0.657 ± 0.012
303.15 K, x1 = 0.5674	0.653 ± 0.012
303.15 K, x1 = 0.6882	0.661 ± 0.012
303.15 K, x1 = 0.7891	0.661 ± 0.012
303.15 K, x1 = 0.9156	0.66 ± 0.012

COCCOCCOCCOCCOC + CCCC(C)O
viscosity [mPa·s], 101 kPa
Conditions	x1 = 0.0055	x1 = 0.0094	x1 = 0.0147	x1 = 0.0256	x1 = 0.0397	x1 = 0.0606	x1 = 0.0791	x1 = 0.0929	x1 = 0.1008
298.15 K	3.301 ± 0.058	3.26 ± 0.057	3.223 ± 0.057	3.071 ± 0.054	2.91 ± 0.051	2.75 ± 0.048	2.641 ± 0.046	2.58 ± 0.045	2.55 ± 0.045
308.15 K	2.291 ± 0.041	2.274 ± 0.041	2.25 ± 0.04	2.203 ± 0.039	2.117 ± 0.038	2.046 ± 0.036	1.977 ± 0.035	1.94 ± 0.034	1.91 ± 0.034
318.15 K	1.658 ± 0.03	1.638 ± 0.03	1.631 ± 0.03	1.622 ± 0.029	1.575 ± 0.029	1.533 ± 0.028	1.524 ± 0.027	1.497 ± 0.027	1.48 ± 0.027

Clc1cccc2ccccc12 + CCO
viscosity [mPa·s], 101.33 kPa
Conditions	x1 = 0.0773	x1 = 0.2002	x1 = 0.3006	x1 = 0.3989	x1 = 0.5008	x1 = 0.5979	x1 = 0.7026	x1 = 0.8011	x1 = 0.9009
298.15 K	1.238 ± 0.017	1.455 ± 0.024	1.63 ± 0.033	1.779 ± 0.043	1.953 ± 0.055	2.11 ± 0.069	2.298 ± 0.086	2.47 ± 0.1	2.655 ± 0.12
303.15 K	1.119 ± 0.015	1.314 ± 0.022	1.471 ± 0.03	1.606 ± 0.039	1.757 ± 0.05	1.89 ± 0.062	2.045 ± 0.076	2.214 ± 0.093	2.389 ± 0.11
308.15 K	1.016 ± 0.014	1.192 ± 0.02	1.334 ± 0.027	1.456 ± 0.035	1.588 ± 0.045	1.714 ± 0.056	1.865 ± 0.07	2.006 ± 0.084	2.158 ± 0.1

C[NH+](C)CCO.O=C([O-])CCCC(=O)O + O
101 kPa, x2 = 0.89
Conditions	viscosity [mPa·s]
298 K	19.3
313 K	11.8

Clc1cccc2ccccc12 + C=Cc1ccccc1
viscosity [mPa·s], 101.33 kPa
Conditions	x2 = 0.1076	x2 = 0.2005	x2 = 0.301	x2 = 0.4032	x2 = 0.5003	x2 = 0.6015	x2 = 0.684	x2 = 0.7992	x2 = 0.9033
298.15 K	2.356 ± 0.054	2.07 ± 0.048	1.778 ± 0.041	1.549 ± 0.036	1.379 ± 0.033	1.216 ± 0.029	1.108 ± 0.027	0.9675 ± 0.024	0.8331 ± 0.021
303.15 K	2.103 ± 0.048	1.864 ± 0.043	1.617 ± 0.038	1.412 ± 0.034	1.259 ± 0.03	1.115 ± 0.027	1.013 ± 0.025	0.91 ± 0.023	0.8013 ± 0.021
308.15 K	1.884 ± 0.044	1.677 ± 0.039	1.47 ± 0.035	1.283 ± 0.031	1.152 ± 0.028	1.036 ± 0.025	0.9455 ± 0.024	0.8446 ± 0.021	0.7413 ± 0.019

COCCOCCOCCOCCOC + CCC(C)O
viscosity [mPa·s]
Conditions	298.15 K	308.15 K	318.15 K	323.15 K
101 kPa, x1 = 0.0018	3.082 ± 0.048	2.157 ± 0.034	1.554 ± 0.025	–
101 kPa, x1 = 0.0046	3.032 ± 0.047	2.132 ± 0.034	1.544 ± 0.025	–
101 kPa, x1 = 0.0146	2.91 ± 0.045	2.069 ± 0.032	1.515 ± 0.024	–
101 kPa, x1 = 0.0257	2.787 ± 0.043	2.024 ± 0.032	1.493 ± 0.024	–
101 kPa, x1 = 0.0738	2.439 ± 0.038	1.834 ± 0.029	1.408 ± 0.023	–
101 kPa, x1 = 0.0988	–	1.777 ± 0.028	1.368 ± 0.022	–
101.3 kPa, x2 = 0.5011	–	–	–	1.495 ± 0.018
101.3 kPa, x2 = 0.6997	–	–	1.445 ± 0.017	–

N#CCCCCC#N + CN(C)C=O
303.15 K, 101.33 kPa
Conditions	viscosity [mPa·s]
x1 = 0.1051	0.9087 ± 0.0058
x1 = 0.2983	1.335 ± 0.0081
x1 = 0.3971	1.636 ± 0.0098
x1 = 0.4957	2.001 ± 0.012
x1 = 0.5919	2.413 ± 0.014
x1 = 0.6983	2.957 ± 0.017
x1 = 0.8486	3.821 ± 0.022

CCCCn1cc[n+](C)c1.F[P-](F)(F)(F)(F)F + ClC(Cl)Cl
Conditions	viscosity [mPa·s]
298.15 K, 101 kPa, x2 = 0.0857	195

C[NH+](C)CCO.O=C([O-])CCCC(=O)O + O=S1(=O)CCCC1
101 kPa, x1 = 0.27
Conditions	viscosity [mPa·s]
303.15 K	132.4
313.15 K	81.7
323.15 K	54.1

CC1=CCC(=C(C)C)CC1 + Brc1ccccc1
viscosity [mPa·s], 101 kPa
Conditions	x1 = 0.0687	x1 = 0.1424	x1 = 0.2216	x1 = 0.307	x1 = 0.3992	x1 = 0.4992	x1 = 0.6079	x1 = 0.7266	x1 = 0.8567
303.15 K	0.993 ± 0.021	1 ± 0.022	1.011 ± 0.024	1.023 ± 0.027	1.032 ± 0.03	1.036 ± 0.034	1.033 ± 0.038	1.023 ± 0.043	1.01 ± 0.048
308.15 K	0.942 ± 0.02	0.948 ± 0.021	0.957 ± 0.023	0.967 ± 0.025	0.975 ± 0.029	0.979 ± 0.032	0.973 ± 0.036	0.962 ± 0.04	0.947 ± 0.045
313.15 K	0.893 ± 0.019	0.897 ± 0.02	0.905 ± 0.022	0.913 ± 0.024	0.919 ± 0.027	0.922 ± 0.03	0.915 ± 0.034	0.903 ± 0.038	0.887 ± 0.042

C=CC(=O)OCC + CCOCCOCCO
viscosity [mPa·s], 101 kPa
Conditions	293.15 K	298.15 K	303.15 K	308.15 K	313.15 K	318.15 K
x2 = 0.0707	0.666 ± 0.07	0.624 ± 0.07	0.587 ± 0.07	0.551 ± 0.07	0.521 ± 0.07	0.499 ± 0.07
x2 = 0.1417	0.76 ± 0.07	0.708 ± 0.07	0.662 ± 0.07	0.62 ± 0.07	0.582 ± 0.07	0.547 ± 0.07
x2 = 0.2167	0.879 ± 0.07	0.813 ± 0.07	0.756 ± 0.07	0.704 ± 0.07	0.66 ± 0.07	0.619 ± 0.07
x2 = 0.2803	0.997 ± 0.071	0.918 ± 0.07	0.85 ± 0.07	0.79 ± 0.07	0.735 ± 0.07	0.686 ± 0.07
x2 = 0.3626	1.192 ± 0.071	1.075 ± 0.071	0.989 ± 0.071	0.914 ± 0.07	0.847 ± 0.07	0.788 ± 0.07
x2 = 0.4228	1.335 ± 0.071	1.227 ± 0.071	1.113 ± 0.071	1.024 ± 0.071	0.946 ± 0.071	0.877 ± 0.07
x2 = 0.5004	1.571 ± 0.071	1.438 ± 0.071	1.305 ± 0.071	1.175 ± 0.071	1.079 ± 0.071	0.995 ± 0.071
x2 = 0.5659	1.812 ± 0.072	1.628 ± 0.071	1.477 ± 0.071	1.329 ± 0.071	1.214 ± 0.071	1.112 ± 0.071
x2 = 0.6497	2.136 ± 0.073	1.927 ± 0.072	1.737 ± 0.072	1.563 ± 0.071	1.411 ± 0.071	1.287 ± 0.071
x2 = 0.7196	2.467 ± 0.073	2.207 ± 0.073	1.956 ± 0.072	1.759 ± 0.072	1.599 ± 0.071	1.459 ± 0.071
x2 = 0.791	2.845 ± 0.074	2.512 ± 0.073	2.233 ± 0.073	1.998 ± 0.072	1.797 ± 0.072	1.627 ± 0.071
x2 = 0.869	3.342 ± 0.076	2.93 ± 0.075	2.558 ± 0.074	2.302 ± 0.073	2.046 ± 0.072	1.857 ± 0.072
x2 = 0.9299	3.752 ± 0.077	3.274 ± 0.076	2.84 ± 0.074	2.552 ± 0.074	2.258 ± 0.073	2.044 ± 0.072

COCOCOCOCOC + COCOCOC
100 kPa
Conditions	viscosity [mPa·s]
298.15 K, x2 = 0.65	1.125 ± 0.053
303.15 K, x2 = 0.12	1.575 ± 0.055

COC(C)(C)C + CCCCCC
303.15 K, 101 kPa
Conditions	viscosity [mPa·s]
x1 = 0.1579	0.314 ± 0.003
x1 = 0.2829	0.318 ± 0.003
x1 = 0.3671	0.321 ± 0.003
x1 = 0.4436	0.323 ± 0.003
x1 = 0.5404	0.327 ± 0.003
x1 = 0.604	0.33 ± 0.003
x1 = 0.7122	0.335 ± 0.003
x1 = 0.8674	0.342 ± 0.003
